Test results as given in article PMC10816875, “Synthesis, Characterization, Cytotoxicity, Cellular Imaging, Molecular Docking, and ADMET Studies of Piperazine-Linked 1,8-Naphthalimide-Arylsulfonyl Derivatives” (International Journal of Molecular Sciences, 2024).
Where two headings read alike, the source gives them in different places.

Experiments:
Type in all cases: cell-based
[1] = CCK-8 viability of 3T3 fibroblast cells; conditions: mouse, read-out: % Cell viability against 3T3 fibroblast cell line
Protocol: (§1) For the anticancer studies, we established a stable cell culture for mouse breast cancer cell line 4T1 (ATCC: CRL-2539) cultured in the medium composition RPMI-1640 (Gibco; Grand Island, New York, USA), 10% fetal bovine serum (Gibco, Mexico), 4.5 g/L glucose, 1.5 g/L NaHCO3, 1 mM sodium pyruvate (Gibco; Grand Island, New York, NY, USA), and 1% penicillin–streptomycin (10,000 U/mL). We observed typical cell morphology after the IV passage of cells unfrozen from liquid nitrogen. Then, the cells were used for the subsequent anticancer experiment. A non-cancerous fibroblast cell line (3T3/NIH, ATCC: CRL-1658) was employed for the fluorescence imaging assay. The cells were cultured in 90% Dulbecco’s modified Eagle’s medium with 4 mM L-glutamine, 2 mM sodium pyruvate, 1% non-essential amino acid, 1% penicillin/streptomycin/amphotericin, and 10% fetal bovine serum.
(§2) A total of 5.0 × 10^4 of 3T3 cells per well in a 96-well plate were co-cultured with the 1.0 μg/mL of SA samples for 72 h. The viability of the 3T3 cells was assayed by using 10% CCK-8 reagent for 60 min to determine the toxicity of the SA samples. Afterwards, the cells were fixed with glutaraldehyde, followed by staining with 0.1 μg/mL of 4′,6-diamidino-2-phenylindole (DAPI) for the imaging of the nuclei. An inverted fluorescent optical microscope (Nikon, Eclipse Ti-S, Japan) was utilized. The fluorescent light source was Nikon Intensilight C-HGFI, and two fluorescent filter cubes (Ex = 340–380 nm, Em = 435–485 nm, corresponding to DAPI, and Ex = 465–495 nm, Em = 512–558 nm, corresponding to SA samples) were used to observe the distribution of SA samples in the cytoplasm. A scientific-grade CCD (Dhyana, model: 400 BSI, Tucsen, Fuzhou, China) was used to record the images. The magnification of the OM was 200×. The original fluorescent images were recorded in greyscale. ImageJ software (an open-source software, NIH Image, version 1.54f, Bethesda, MD, USA) was employed to merge and convert two fluorescent images into visible colors, e.g., blue for cell nuclei and green for SA1–SA7 samples.

[2] = tested on: mouse breast cancer 4T1 cell line; assay: MTT cytotoxicity assay on 4T1 breast cancer cells; conditions: 24 h
Protocol: as §1
A cellular viability assay was employed for the cytotoxicity of SA samples. […] A cell viability reagent (MTT, Sigma-Aldrich, St Louis, MI, USA) containing yellow tetrazolium salt (3-(4,5-dimethylthiazol-2-yl)-2,5-diphenyltetrazolium bromide) can be converted to purple formazan salt to indicate the cell viability. The 4T1 breast cancer cells were cultured at a density of 5.0 × 10^3 cells per well in 96-well plates. The cells were treated with SA samples for 24 h. The control groups were abbreviated as Cont (100% culture medium), representing normal cell culture; PC (20% DMSO and 80% culture medium), representing toxic condition; and NC (0.1% DMSO and 99.9%), representing minimum toxic condition. MTT reagent was added to 96-well plates to measure the cytotoxic effect of the SA compounds on 4T1 cells.

[3] = tested on: 3T3 fibroblast cell line; assay: CCK-8 viability of 3T3 fibroblast cells; conditions: 1 μg/mL, 72 h
Protocol: as §1, §2

Compound | viability at 72 h, 1 μg/mL [1] [%] | cytotoxicity against 4T1 breast cancer cells (in words) [2] | other results
O=C1c2cccc3cccc(c23)C(=O)N1CCN1CCN(S(=O)(=O)c2cccnc2)CC1 [SA6, 2-(2-(4-(Pyridin-3-ylsulfonyl)piperazin-1-yl)ethyl)-1H-benzo[de]isoquinoline-1,3(2H)-dione] | 82 to 95 | good anticancer activity | 
O=C1c2cccc3cccc(c23)C(=O)N1CCN1CCN(S(=O)(=O)c2ccc([N+](=O)[O-])cc2)CC1 [SA3, 2-(2-(4-((4-Nitrophenyl)sulfonyl)piperazin-1-yl)ethyl)-1H-benzo[de]isoquinoline-1,3 (2H)-dione] | 82 to 95 | low toxicity | % Cell viability against 3T3 fibroblast cell line [3]: relatively high viability
N#Cc1ccc(S(=O)(=O)N2CCN(CCN3C(=O)c4cccc5cccc(c45)C3=O)CC2)cc1 [SA7, 4-((4-(2-(1,3-Dioxo-1H-benzo[de]isoquinolin-2(3H)-yl)ethyl)piperazin-1-yl)sulfonyl)benzonitrile] | 82 to 95 |  | 
O=C1c2cccc3cccc(c23)C(=O)N1CCN1CCN(S(=O)(=O)c2ccc3ccccc3c2)CC1 [SA2, 2-(2-(4-(Naphthalen-2-ylsulfonyl)piperazin-1-yl)ethyl)-1H-benzo[de]isoquinoline-1,3 (2H)-dione] | 82 to 95 |  | 
O=C1c2cccc3cccc(c23)C(=O)N1CCN1CCN(S(=O)(=O)c2ccccc2[N+](=O)[O-])CC1 [SA1, 2-(2-(4-((2-Nitrophenyl)sulfonyl)piperazin-1-yl)ethyl)-1H-benzo[de]isoquinoline-1,3 (2H)-dione] |  |  | viability at 72 h, 1 μg/mL ([1]; 3T3/NIH fibroblast cells (non-cancerous)): 82 to 95%
O=C1c2cccc3cccc(c23)C(=O)N1CCN1CCN(S(=O)(=O)c2cccs2)CC1 [SA5, 2-(2-(4-(Thiophen-2-ylsulfonyl)piperazin-1-yl)ethyl)-1H-benzo[de]isoquinoline-1,3(2H)-dione] | 82 to 95 | most potent (cytotoxic) compound | viability at 0.7 µM ([2]; Mus musculus, 4T1, 0.7 μM): < 80%
O=C1c2cccc3cccc(c23)C(=O)N1CCN1CCN(S(=O)(=O)c2ccc(Cl)s2)CC1 [SA4, 2-(2-(4-((5-Chlorothiophen-2-yl)sulfonyl)piperazin-1-yl)ethyl)-1H-benzo[de]isoquinoline-1,3(2H)-dione] | 82 to 95 |  | 
